Experiment [1] has as its target T1, human tryptophan 2,3-dioxygenase (hTDO) (Homo sapiens, UniProt P48775).
T1 construct: His tag (N); purchased BPS Bioscience, San Diego, Calif., USA; host or cells: E. coli
The experiment is described as follows: In-vitro human tryptophan 2,3-dioxygenase (TDO) enzyme assay. In kind it is biochemical. As to conditions: for inhibition at 1 µM: hTDO enzyme at 1.0 μM concentration; for inhibition at 10 µM: hTDO enzyme at 10.0 μM concentration. The essentials: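 N-His-tagged hTDO expressed in E. coli (125 ng) incubated with 200 μM L-tryptophan, 100 mM sodium phosphate pH 7.0, 0.01% Tween-20, 100 μM ascorbate, 60 min at 37 °C. Product converted with 200 mM piperidine (65 °C, 20 min) to NFK-PIP, fluorescence 400/500 nm; IC50 by nonlinear regression.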

In experiment [2] the target is T2, human indoleamine 2,3-dioxygenase 1 (hIDO1) (Homo sapiens, UniProt P14902).
T2 construct: His tag (N); purchased BPS Bioscience, San Diego, Calif., USA; host or cells: E. coli
The experiment is described as follows: In-vitro human indoleamine 2,3-dioxygenase 1 (IDO1) enzyme assay. The class given is biochemical. As to conditions: for inhibition at 1 µM: hIDO1 enzyme at 1.0 μM concentration; for inhibition at 10 µM: hIDO1 enzyme at 10.0 μM concentration; for IC50: hIDO1 enzyme. The essentials:
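His-tagged hIDO1 (E. coli, 50 ng) incubated with 80 μM tryptophan, 10 mM ascorbate, 10 μM methylene blue, catalase and 0.01% Tween-20 in 50 mM sodium phosphate pH 6.5, 60 min, 37 °C. Piperidine converts N-formylkynurenine to fluorescent NFK-PIP (ex 400/em 500 nm); IC50 by nonlinear regression.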

By inhibition is commonly meant the share of the control response that was lost under treatment. A low value points to a response near the control. By IC50 is commonly meant the concentration needed to halve the response being measured. A higher IC50 goes with weaker potency in that assay.

T2 sequence (P14902 whole entry): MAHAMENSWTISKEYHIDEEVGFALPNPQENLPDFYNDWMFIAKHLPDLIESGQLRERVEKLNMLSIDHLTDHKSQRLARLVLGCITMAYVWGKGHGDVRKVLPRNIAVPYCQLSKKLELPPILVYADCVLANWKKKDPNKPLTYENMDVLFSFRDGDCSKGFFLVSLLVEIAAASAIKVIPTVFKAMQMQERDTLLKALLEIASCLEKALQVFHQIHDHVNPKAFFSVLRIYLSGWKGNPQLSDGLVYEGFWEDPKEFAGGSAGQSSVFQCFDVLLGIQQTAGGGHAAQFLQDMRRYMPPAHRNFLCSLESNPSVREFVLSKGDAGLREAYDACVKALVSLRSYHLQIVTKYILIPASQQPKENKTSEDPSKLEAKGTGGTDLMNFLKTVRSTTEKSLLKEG
T1 sequence (P48775 whole entry): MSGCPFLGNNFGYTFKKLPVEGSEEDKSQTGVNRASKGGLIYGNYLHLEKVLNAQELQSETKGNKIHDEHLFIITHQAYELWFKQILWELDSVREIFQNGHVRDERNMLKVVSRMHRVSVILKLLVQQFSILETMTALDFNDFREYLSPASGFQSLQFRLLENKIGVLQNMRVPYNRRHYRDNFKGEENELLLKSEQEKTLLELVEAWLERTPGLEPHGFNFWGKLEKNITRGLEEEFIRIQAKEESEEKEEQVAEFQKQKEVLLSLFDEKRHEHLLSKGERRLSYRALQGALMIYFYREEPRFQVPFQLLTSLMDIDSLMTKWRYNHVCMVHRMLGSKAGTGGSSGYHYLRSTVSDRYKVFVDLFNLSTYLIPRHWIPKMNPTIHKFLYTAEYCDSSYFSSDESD

The compound `CC1=C(c2ccccc2)C(CC(O)c2ccc(C3CCCCC3)cc2)n2cncc21` (stereo not drawn) [Example 74] had an inhibition at 1 µM in experiment [1] of no more than 50%. Further, in experiment [2], the inhibition at 1 µM was no more than 50% and the inhibition at 10 µM is no less than 50%.
In experiment [1], `CC1=C(c2ccccc2)C(CC(=O)c2ccc(OCc3ccccc3)cc2)n2cncc21` (stereo not drawn) [Example 75, 1-(4-(benzyloxy)phenyl)-2-(7-methyl-6-phenyl-5H-pyrrolo[1,2-c]imidazol-5-yl)ethan-1-one] showed an inhibition at 1 µM of no less than 50%. In experiment [2], this compound displayed an IC50 of less than 500 nM, an inhibition at 1 µM of no less than 50% and an inhibition at 10 µM of no less than 50%.
`CC1=C(c2ccccc2)C(CC(=O)c2ccc(Oc3ccccc3F)cc2)n2cncc21` (stereo not drawn) [Example 76, 1-(4-(2-fluorophenoxy)phenyl)-2-(7-methyl-6-phenyl-5H-pyrrolo[1,2-c]imidazol-5-yl)ethan-1-one] displayed an inhibition at 1 µM in experiment [1] of no more than 50%. Moreover, in experiment [2], the IC50 is less than 500 nM, the inhibition at 1 µM is no less than 50% and the inhibition at 10 µM was no less than 50%.
Compound `CC1=C(c2ccccc2)C(CC(=O)c2ccc(C(=O)Nc3ccccc3)cc2)n2cncc21` (stereo not drawn) [Example 77] displayed an inhibition at 1 µM in experiment [1] of no less than 50%. Further, in experiment [2], the IC50 was less than 500 nM, the inhibition at 1 µM is no less than 50% and the inhibition at 10 µM is no less than 50%.
Take `CNC(=O)c1ccc(C(=O)CC2C(c3ccccc3)=C(C)c3cncn32)cc1` (stereo not drawn) [Example 78]: in experiment [1], the inhibition at 1 µM is no less than 50% and the inhibition at 10 µM was no less than 50%. In experiment [2], this compound came in with an inhibition at 1 µM of no less than 50% and an inhibition at 10 µM of no less than 50%.
As for `CC1=C(c2ccccc2)C(CC(=O)c2ccc(C(=O)Nc3cccnc3)cc2)n2cncc21` (stereo not drawn) [Example 79], the inhibition at 1 µM in experiment [1] was no less than 50%. In experiment [2], this compound registered an IC50 greater than 500 nM, an inhibition at 1 µM of no less than 50% and an inhibition at 10 µM of no less than 50%.
Regarding `CC1=C(c2ccccc2)C(CC(=O)c2ccc(C(=O)Nc3ccc(Cl)cc3)cc2)n2cncc21` (stereo not drawn) [Example 80], the inhibition at 1 µM in experiment [1] is no less than 50%. Besides, in experiment [2], the inhibition at 1 µM is no less than 50% and the inhibition at 10 µM was no less than 50%.
`CC1=C(c2ccccc2)C(CC(=O)c2ccc(C(=O)Nc3ccc(F)cc3F)cc2)n2cncc21` (stereo not drawn) [Example 81] had an inhibition at 1 µM in experiment [1] of no less than 50%. In experiment [2], this compound yielded an IC50 of less than 500 nM, an inhibition at 1 µM of no less than 50% and an inhibition at 10 µM of no less than 50%.
In the case of `CC1=C(c2ccccc2)C(CC(O)c2ccc(C(=O)Nc3ccc(Cl)cc3)cc2)n2cncc21` (stereo not drawn) [Example 82], the inhibition at 1 µM in experiment [1] is no more than 50%. In experiment [2], the inhibition at 1 µM was no more than 50% and the inhibition at 10 µM was no less than 50%.
On to `CC1=C(c2ccccc2)C(CC(=O)c2ccc(C(=O)Nc3ccc(C)cc3C)cc2)n2cncc21` (stereo not drawn) [Example 84], for which, in experiment [1], the inhibition at 1 µM is no less than 50%. In experiment [2], this compound gave an inhibition at 1 µM of no less than 50% and an inhibition at 10 µM of no less than 50%.
With `CC1=C(c2ccc(C)cc2)C(CC(=O)C2CCCCC2)n2cncc21` (stereo not drawn) [Example 86, 1-Cyclohexyl-2-(7-methyl-6-(p-tolyl)-5H-pyrrolo[1,2-c]imidazol-5-yl)ethan-1-one], the values for the inhibition at 1 µM in experiment [1] and in experiment [2] were no less than 50% and no more than 50%, respectively. The same compound came in with an inhibition at 10 µM in experiment [2] of no more than 50%.
For `CC1=C(c2ccc(C)cc2)C(CC(O)C2CCCCC2)n2cncc21` (stereo not drawn) [Example 87, 1-Cyclohexyl-2-(7-methyl-6-(p-tolyl)-5H-pyrrolo[1,2-c]imidazol-5-yl)ethan-1-ol], the figures for the inhibition at 1 µM in experiment [1] and in experiment [2] were no less than 50% and no more than 50%, respectively. This compound also displayed an inhibition at 10 µM in experiment [2] of no less than 50%.
As to `CC1=C(c2ccccc2)C(CC(=O)C2CCCCC2)n2cncc21` (stereo not drawn) [Example 88, 1-Cyclohexyl-2-(7-methyl-6-phenyl-5H-pyrrolo[1,2-c]imidazol-5-yl)-ethanone], in experiment [1], the inhibition at 1 µM was no less than 50% and the inhibition at 10 µM was no less than 50%. In experiment [2], the IC50 is greater than 500 nM and the inhibition at 10 µM is no less than 50%.
On to `CC1=C(c2ccccc2)C(CC(O)C2CCCCC2)n2cncc21` (stereo not drawn) [Example 89, 1-Cyclohexyl-2-(7-methyl-6-phenyl-5H-pyrrolo[1,2-c]imidazol-5-yl)-ethane-1-ol], for which, in experiment [1], the inhibition at 1 µM is no less than 50% and the inhibition at 10 µM is no less than 50%. In experiment [2], the IC50 was less than 500 nM, the inhibition at 1 µM is no less than 50% and the inhibition at 10 µM is no less than 50%.
Turning to `CC1=C(c2cccc(Cl)c2)C(CC(=O)C2CCCCC2)n2cncc21` (stereo not drawn) [Example 95], in experiment [1], the inhibition at 1 µM was no more than 50%. In experiment [2], the inhibition at 1 µM was no more than 50% and the inhibition at 10 µM was no less than 50%.
The compound `CC1=C(c2cccc(Cl)c2)C(CC(O)C2CCCCC2)n2cncc21` (stereo not drawn) [Example 96] yielded an inhibition at 1 µM in experiment [1] of no more than 50%. In experiment [2], this compound gave an inhibition at 1 µM of no more than 50% and an inhibition at 10 µM of no less than 50%.
`CC1=C(c2ccccc2)C(CC(=O)C2CCC(O)CC2)n2cncc21` (stereo not drawn) [Example 99] returned an inhibition at 1 µM in experiment [1] of no less than 50%. In experiment [2], this compound displayed an inhibition at 1 µM of no more than 50% and an inhibition at 10 µM of no less than 50%.
`CC1=C(c2ccccc2)C(CC(=O)C2CCOCC2)n2cncc21` (stereo not drawn) [Example 100] registered an inhibition at 1 µM in experiment [1] of no less than 50%. In experiment [2], the inhibition at 1 µM was no more than 50% and the inhibition at 10 µM is no less than 50%.
`CC1=C(c2ccccc2F)C(CC(=O)C2CCCCC2)n2cncc21` (stereo not drawn) [Example 101] registered an inhibition at 1 µM in experiment [1] of no less than 50%. Also, in experiment [2], the inhibition at 1 µM was no more than 50% and the inhibition at 10 µM is no less than 50%.
`O=C(CC1C(c2ccccc2)=C(c2ccccc2)c2cncn21)C1CCCCC1` (stereo not drawn) [Example 102]: in experiment [1], the inhibition at 1 µM was no more than 50%. In experiment [2], this compound displayed an inhibition at 1 µM of no more than 50% and an inhibition at 10 µM of no more than 50%.
Compound `OC(CC1C(c2ccccc2)=C(c2ccccc2)c2cncn21)C1CCCCC1` (stereo not drawn) [Example 103] yielded an inhibition at 1 µM in experiment [1] of no more than 50%. Further, in experiment [2], the inhibition at 1 µM is no more than 50% and the inhibition at 10 µM is no more than 50%.
In the case of `COc1ccc(C2=C(C)c3cncn3C2CC(=O)C2CCCCC2)cc1` (stereo not drawn) [Example 104], the inhibition at 1 µM in experiment [1] and in experiment [2] was no more than 50% in each case. Moreover, the inhibition at 10 µM in experiment [2] was no more than 50%.
In the case of `CC1=C(c2ccccc2C)C(CC(O)C2CCCCC2)n2cncc21` (stereo not drawn) [Example 105], the inhibition at 1 µM in experiment [1] was no more than 50%. In addition, in experiment [2], the inhibition at 1 µM is no more than 50% and the inhibition at 10 µM is no less than 50%.
Take `CC(C)C1=C(c2ccccc2)C(CC(=O)C2CCCCC2)n2cncc21` (stereo not drawn) [Example 106]: the inhibition at 1 µM in experiment [1] was no more than 50%. In experiment [2], the inhibition at 1 µM is no more than 50% and the inhibition at 10 µM is no more than 50%.
As for `CC1=C(c2ccccc2)C(CC(=O)C23CC4CC(CC(C4)C2)C3)n2cncc21` (stereo not drawn) [Example 107], the inhibition at 1 µM in experiment [1] is no less than 50%. Moreover, in experiment [2], the inhibition at 1 µM is no more than 50% and the inhibition at 10 µM was no less than 50%.
The compound `CC1=C(c2ccccc2)C(CC(O)C23CC4CC(CC(C4)C2)C3)n2cncc21` (stereo not drawn) [Example 108] came in with an inhibition at 1 µM in experiment [1] of no less than 50%. In addition, in experiment [2], the inhibition at 1 µM was no less than 50% and the inhibition at 10 µM was no less than 50%.
Regarding `CC1=C(c2ccccc2)C(CC(=O)C2CCC(C(=O)Nc3ccccc3)CC2)n2cncc21` (stereo not drawn) [Example 109, 4-(2-(7-methyl-6-phenyl-5H-pyrrolo[1,2-c]imidazol-5-yl)acetyl)-N-phenylcyclohexane-1-carboxamide], the inhibition at 1 µM in experiment [1] is no less than 50%. In experiment [2], this compound had an inhibition at 1 µM of no more than 50% and an inhibition at 10 µM of no less than 50%.
